Laboratory results: patent US8461305B2, “L-fucose α1→6 specific lectin” (J-Oil Mills, Inc., priority 2008, dated 2013)

T1: Invertase (yeast) (Saccharomyces cerevisiae, UniProt P00724)
T1 sequence (P00724 20-532): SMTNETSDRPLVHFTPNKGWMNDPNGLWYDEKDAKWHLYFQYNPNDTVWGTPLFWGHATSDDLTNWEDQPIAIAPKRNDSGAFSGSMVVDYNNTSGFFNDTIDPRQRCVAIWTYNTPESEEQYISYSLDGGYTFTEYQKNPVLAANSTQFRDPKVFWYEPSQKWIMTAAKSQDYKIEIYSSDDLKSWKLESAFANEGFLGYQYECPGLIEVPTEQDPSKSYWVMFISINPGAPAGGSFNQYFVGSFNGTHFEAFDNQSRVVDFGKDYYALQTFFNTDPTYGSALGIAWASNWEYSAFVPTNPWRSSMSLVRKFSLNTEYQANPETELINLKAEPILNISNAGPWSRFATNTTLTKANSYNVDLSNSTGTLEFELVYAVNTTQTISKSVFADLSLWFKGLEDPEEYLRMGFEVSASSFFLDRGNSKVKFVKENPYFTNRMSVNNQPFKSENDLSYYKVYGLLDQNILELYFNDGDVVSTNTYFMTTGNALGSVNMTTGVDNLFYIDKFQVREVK

B1: Pisum sativum agglutinin (protein)
chain: TETTSFLITKFSPDQQNLIFQGDGYTTKEKLTLTKAVKNTVGRALYSSPIHIWDRETGNVANFVTSFTFVINAPNSYNVADGFTFFIAPVDTKPQTGGGYLGVFNSAEYDKTTQTVAVEFDTFYNAAWDPSNRDRHIGIDVNSIKSVNTKSWKLQNGEEANVVIAFNAATNVLTVSLTYPNSLEEENVTSYTLSDVVSLKDVVPEWVRIGFSATTGAEYAAHEVLSWSFHSELSGTSSSKQAADA

Key:
[1] = system: glycoproteins; test: hemagglutinating inhibition test with glycoproteins (sugar binding specificity); assay type: cell-based
Source text: The sugar binding specificity of lectin also can be confirmed by using erythrocytes that can be specifically agglutinated by the lectin to investigate the sugar type that may inhibit the agglutination of the erythrocytes and the concentration thereof.
Various monosaccharides, oligosaccharides, and polysaccharides shown in Table 2 and glycoproteins shown in Table 3 were subjected to hemagglutinating inhibition test to evaluate PTL of Example 1 and the SRL of Example 2 with regard to the sugar binding specificity.
On a 96 well U-bottom microtiter plate, double dilution series of 10 μl of monosaccharide, oligosaccharide, polysaccharide, and glycoprotein solutions were prepared. Then, lectin solution adjusted in advance to have titer 4 was added in an amount of 10 μl to the respective wells. Then, the plate was subjected to a still-standing at a room temperature for one hour for sensitization. Then, 10 μl of 4%-red blood cell suspension was added to the respective wells and the plate was further subjected to a still-standing at a room temperature for one hour. […] The lowest concentration showing the inhibition was assumed as the minimum inhibition concentration. The lower the minimum inhibition concentration is, the higher the specificity to lectin is.
For comparison, the sugar binding specificity was evaluated using the following commercially-available lectins: Comparison Example 1: AAL (SEIKAGAKU BIOBUSINESS CORPORATION—J-OIL MILLS, Inc.), Comparison Example 2: AOL (TOKYO CHEMICAL INDUSTRY CO., LTD.—Gekkeikan Sake Company, Ltd.), Comparison Example 3: LCA (SEIKAGAKU BIOBUSINESS CORPORATION—J-OIL MILLS, Inc.), and Comparison Example 4: PSA (SEIKAGAKU BIOBUSINESS CORPORATION—J-OIL MILLS, Inc.).

[2] = target: Blood serum albumin (bovine) (Bos taurus, UniProt P02769); test: detection of glycoproteins by ELISA with biotin-labeled lectin; assay type: binding; conditions: (0) Blood serum albumin (bovine), No sugar chain; thyroglobulin value = 100%
Procedure: (§1) PTL of Example 1, SRL of Example 2, AAL of Comparison Example 1, AOL of Comparison Example 2, and LCA of Comparison Example 3 that were biotin-labeled were used to the detection of glycoproteins by the enzyme-linked immunosorbent assay (ELISA).
(§2) The glycoprotein and albumin as protein not including a sugar chain as a control were dissolved in 0.1 M carbonic acid buffer solution (pH 9.5) at 1 mg/ml. Then, the resultant solution was added to a microtiter plate (Nunc 439454) and was incubated at 4 degrees C. overnight. Then, the resultant solution was cleaned by 0.05% Tween/PBS three times. Thereafter, 1% BSA/PBS was added to wells and the solution was incubated at 37 degrees C. for one hour. Then, after the solution was cleaned by 0.05% Tween/PBS three times, biotin labeled-lectin appropriately diluted by 1% BSA/0.05% Tween/PBS was added to the wells and the solution was incubated at 37 degrees C. for one hour. After the solution was cleaned by 0.05% Tween/PBS three times, HRP labeled streptavidin solution diluted by 1% BSA/0.05% Tween/PBS was added to wells and the solution was incubated at 37 degrees C. for 30 minutes. After the solution was cleaned by 0.05% Tween/PBS three times, TMB Peroxidase substrate system (KPL) was added and the resultant solution was incubated at a room temperature for 10 minutes while light was being blocked.
(§3) The reaction was stopped by 1 M phosphoric acid. Then, a microplate reader (MPR-A4i, TOSOH CORPORATION) was used to measure the absorbance at 450 nm. Based on this value, reaction value ([absorbance at 450 nm of a well for which glycoprotein was solid-phased to the plate and reacted]−[absorbance at 450 nm of a well for which glycoprotein was not solid-phased to the plate and reacted] was calculated. Next, for each lectin, the interaction strength (relative value) to each glycoprotein was calculated based on an assumption that the glycoprotein (thyroglobulin) value was 100%. The calculation result is shown in Table 9 and FIG. 19 to FIG. 23.

[3] = target: T1, Invertase (yeast); test: as above; assay type: binding; conditions: (6) Invertase (yeast), High mannose-type glycan; thyroglobulin value = 100%
Procedure: as §1, §2, §3

[4] = target: Lactoferrin (human) (Homo sapiens, UniProt P02788); test: as above; assay type: binding; conditions: (2) Lactoferrin (human), N-linked glycan chain having α1→6 L-fucose; thyroglobulin value = 100%
Procedure: as §1, §2, §3

[5] = system: Mucin (bovine); test: as above; assay type: binding; conditions: (8) Mucin (bovine), O-linked glycan including L-fucose; thyroglobulin value = 100%
Procedure: as §1, §2, §3

[6] = system: Mucin (pig); test: as above; assay type: binding; conditions: (7) Mucin (pig), O-linked glycan including L-fucose; thyroglobulin value = 100%
Procedure: as §1, §2, §3

[7] = target: Thyroglobulin (pig) (Sus scrofa, UniProt F1RRV3); test: as above; assay type: binding; conditions: (1) Thyroglobulin (pig), N-linked glycan having α1→6 L-fucose; thyroglobulin value = 100%
Procedure: as §1, §2, §3

[8] = target: Transferrin (human) (Homo sapiens, UniProt P02787); test: as above; assay type: binding; conditions: (4) Transferrin (human), N-linked glycan not including α1→6 L-fucose; thyroglobulin value = 100%
Procedure: as §1, §2, §3

[9] = system: α1-acidic glycoprotein (human); test: as above; assay type: binding; conditions: (5) α1-acidic glycoprotein (human), N-linked glycan having α1→3 L-fucose; thyroglobulin value = 100%
Procedure: as §1, §2, §3

[10] = inhibitor: Bovine blood serum albumin
[11] = inhibitor: Human immune globulin A
[12] = inhibitor: Human immune globulin G
[13] = inhibitor: α1-acidic glycoprotein

Lactoferrin (human), sequence (P02788 20-710): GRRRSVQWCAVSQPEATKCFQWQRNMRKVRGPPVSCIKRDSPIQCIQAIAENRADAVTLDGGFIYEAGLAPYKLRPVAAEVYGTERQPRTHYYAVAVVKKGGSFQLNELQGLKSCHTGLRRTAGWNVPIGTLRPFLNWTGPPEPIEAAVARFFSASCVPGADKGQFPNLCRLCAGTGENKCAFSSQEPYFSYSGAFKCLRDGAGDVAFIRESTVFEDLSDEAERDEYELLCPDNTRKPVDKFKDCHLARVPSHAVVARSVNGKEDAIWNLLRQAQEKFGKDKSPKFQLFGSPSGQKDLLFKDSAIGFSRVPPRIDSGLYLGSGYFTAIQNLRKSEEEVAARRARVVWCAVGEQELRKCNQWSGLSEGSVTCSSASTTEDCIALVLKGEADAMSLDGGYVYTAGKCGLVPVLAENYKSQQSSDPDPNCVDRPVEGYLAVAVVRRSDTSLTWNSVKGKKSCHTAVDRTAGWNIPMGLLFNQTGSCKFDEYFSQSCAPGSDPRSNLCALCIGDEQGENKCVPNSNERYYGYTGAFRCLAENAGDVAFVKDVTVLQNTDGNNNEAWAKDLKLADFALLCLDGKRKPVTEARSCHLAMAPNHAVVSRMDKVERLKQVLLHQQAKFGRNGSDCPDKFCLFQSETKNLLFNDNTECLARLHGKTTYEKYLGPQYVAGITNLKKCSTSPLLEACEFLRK
Thyroglobulin (pig), sequence (F1RRV3 20-2692): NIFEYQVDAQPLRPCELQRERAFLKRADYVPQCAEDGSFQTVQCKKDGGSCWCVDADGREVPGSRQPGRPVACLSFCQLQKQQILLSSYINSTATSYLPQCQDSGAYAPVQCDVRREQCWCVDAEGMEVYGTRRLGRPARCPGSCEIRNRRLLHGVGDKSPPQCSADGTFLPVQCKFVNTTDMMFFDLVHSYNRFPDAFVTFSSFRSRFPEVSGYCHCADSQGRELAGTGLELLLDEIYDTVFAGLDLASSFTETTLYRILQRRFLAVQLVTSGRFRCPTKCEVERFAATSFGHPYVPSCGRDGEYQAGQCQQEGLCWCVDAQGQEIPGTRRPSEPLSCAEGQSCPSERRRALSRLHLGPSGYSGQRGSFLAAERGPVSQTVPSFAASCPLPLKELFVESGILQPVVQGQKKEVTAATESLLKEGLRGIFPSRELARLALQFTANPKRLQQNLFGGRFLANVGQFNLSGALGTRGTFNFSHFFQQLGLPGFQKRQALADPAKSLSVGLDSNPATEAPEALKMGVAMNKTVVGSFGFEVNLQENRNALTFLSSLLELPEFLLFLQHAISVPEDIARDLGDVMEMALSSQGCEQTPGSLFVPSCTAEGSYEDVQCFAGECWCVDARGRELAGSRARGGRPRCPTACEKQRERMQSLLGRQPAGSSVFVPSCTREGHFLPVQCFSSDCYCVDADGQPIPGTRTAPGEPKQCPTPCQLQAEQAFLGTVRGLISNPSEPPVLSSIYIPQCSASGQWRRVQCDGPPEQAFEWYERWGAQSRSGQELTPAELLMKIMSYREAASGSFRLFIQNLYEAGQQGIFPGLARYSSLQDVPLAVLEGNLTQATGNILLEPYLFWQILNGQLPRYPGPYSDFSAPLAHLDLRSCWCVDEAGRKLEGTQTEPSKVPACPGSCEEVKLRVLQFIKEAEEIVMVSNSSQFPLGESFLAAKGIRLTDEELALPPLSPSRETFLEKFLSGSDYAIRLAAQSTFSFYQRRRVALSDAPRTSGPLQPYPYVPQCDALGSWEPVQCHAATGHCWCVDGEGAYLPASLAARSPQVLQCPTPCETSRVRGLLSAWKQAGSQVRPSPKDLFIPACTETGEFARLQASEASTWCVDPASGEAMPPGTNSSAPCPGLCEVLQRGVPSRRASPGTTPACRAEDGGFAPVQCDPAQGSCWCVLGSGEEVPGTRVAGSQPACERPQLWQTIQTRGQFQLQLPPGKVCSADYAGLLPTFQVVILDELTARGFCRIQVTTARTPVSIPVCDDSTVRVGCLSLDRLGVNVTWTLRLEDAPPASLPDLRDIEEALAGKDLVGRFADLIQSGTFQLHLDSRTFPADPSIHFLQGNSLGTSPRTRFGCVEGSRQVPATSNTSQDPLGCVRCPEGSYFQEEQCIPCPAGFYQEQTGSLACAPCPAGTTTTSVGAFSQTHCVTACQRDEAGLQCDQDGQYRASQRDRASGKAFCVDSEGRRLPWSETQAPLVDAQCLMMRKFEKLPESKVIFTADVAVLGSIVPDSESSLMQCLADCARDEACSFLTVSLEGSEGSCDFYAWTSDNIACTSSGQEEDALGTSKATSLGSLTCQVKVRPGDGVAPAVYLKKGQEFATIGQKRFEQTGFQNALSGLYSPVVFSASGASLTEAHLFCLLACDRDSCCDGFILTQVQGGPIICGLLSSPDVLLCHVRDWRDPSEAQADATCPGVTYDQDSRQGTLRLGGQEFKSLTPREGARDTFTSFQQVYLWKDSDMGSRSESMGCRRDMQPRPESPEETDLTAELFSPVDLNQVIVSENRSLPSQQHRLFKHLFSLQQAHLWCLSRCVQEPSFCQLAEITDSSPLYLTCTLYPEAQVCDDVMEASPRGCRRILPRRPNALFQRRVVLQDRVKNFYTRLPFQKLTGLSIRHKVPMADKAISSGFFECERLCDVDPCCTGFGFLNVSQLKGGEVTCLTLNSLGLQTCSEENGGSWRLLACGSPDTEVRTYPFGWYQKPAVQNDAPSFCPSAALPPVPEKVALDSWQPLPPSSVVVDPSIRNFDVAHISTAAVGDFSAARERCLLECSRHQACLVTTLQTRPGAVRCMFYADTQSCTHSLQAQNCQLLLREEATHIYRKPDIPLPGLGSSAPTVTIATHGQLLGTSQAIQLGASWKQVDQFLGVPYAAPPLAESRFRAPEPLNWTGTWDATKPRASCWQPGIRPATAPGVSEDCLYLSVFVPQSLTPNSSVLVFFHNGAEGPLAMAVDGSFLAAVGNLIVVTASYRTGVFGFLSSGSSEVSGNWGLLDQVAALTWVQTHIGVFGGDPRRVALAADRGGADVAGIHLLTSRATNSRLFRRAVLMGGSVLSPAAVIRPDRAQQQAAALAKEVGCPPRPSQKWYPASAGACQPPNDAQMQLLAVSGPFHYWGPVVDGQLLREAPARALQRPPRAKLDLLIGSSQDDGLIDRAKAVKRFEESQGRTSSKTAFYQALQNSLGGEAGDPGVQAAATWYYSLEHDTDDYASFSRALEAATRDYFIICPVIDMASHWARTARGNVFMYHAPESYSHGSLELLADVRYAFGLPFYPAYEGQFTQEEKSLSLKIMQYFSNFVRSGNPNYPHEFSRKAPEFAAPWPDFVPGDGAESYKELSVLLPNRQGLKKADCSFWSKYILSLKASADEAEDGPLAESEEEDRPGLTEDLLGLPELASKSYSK
Blood serum albumin (bovine), sequence (P02769 25-607): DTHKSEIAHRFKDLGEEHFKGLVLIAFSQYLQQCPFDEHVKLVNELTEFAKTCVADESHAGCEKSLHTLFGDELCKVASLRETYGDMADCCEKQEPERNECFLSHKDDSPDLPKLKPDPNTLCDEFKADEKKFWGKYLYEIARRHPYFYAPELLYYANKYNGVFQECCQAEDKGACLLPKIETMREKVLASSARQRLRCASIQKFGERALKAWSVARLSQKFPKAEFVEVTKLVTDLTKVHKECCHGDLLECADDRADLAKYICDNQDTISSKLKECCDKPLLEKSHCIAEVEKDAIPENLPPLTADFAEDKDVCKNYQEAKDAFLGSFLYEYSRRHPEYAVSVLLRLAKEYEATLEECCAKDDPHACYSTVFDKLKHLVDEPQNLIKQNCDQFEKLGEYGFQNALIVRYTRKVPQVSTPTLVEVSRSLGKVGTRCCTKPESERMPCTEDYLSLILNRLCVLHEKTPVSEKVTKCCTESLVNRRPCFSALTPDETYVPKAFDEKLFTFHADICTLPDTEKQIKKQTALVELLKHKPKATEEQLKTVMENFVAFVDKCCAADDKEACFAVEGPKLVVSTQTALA
Transferrin (human), sequence (P02787 20-698): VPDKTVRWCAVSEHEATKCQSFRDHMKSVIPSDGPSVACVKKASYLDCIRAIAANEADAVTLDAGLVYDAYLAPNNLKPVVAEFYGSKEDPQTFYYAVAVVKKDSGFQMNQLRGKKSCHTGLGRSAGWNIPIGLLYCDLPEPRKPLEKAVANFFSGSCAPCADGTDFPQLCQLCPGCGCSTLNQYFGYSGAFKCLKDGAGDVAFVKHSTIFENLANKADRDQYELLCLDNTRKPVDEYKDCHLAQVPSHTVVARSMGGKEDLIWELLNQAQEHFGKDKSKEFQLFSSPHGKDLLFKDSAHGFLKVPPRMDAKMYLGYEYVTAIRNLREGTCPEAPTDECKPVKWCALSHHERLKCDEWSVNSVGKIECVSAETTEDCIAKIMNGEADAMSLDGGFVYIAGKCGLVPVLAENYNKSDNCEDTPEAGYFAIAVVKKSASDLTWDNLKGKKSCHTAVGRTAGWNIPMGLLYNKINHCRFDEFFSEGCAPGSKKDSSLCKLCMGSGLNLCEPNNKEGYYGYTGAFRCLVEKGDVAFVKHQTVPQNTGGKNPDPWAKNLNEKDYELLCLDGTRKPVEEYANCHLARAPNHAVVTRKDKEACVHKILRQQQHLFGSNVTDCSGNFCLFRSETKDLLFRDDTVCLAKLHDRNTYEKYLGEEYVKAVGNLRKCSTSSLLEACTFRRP

Molecule	minimum inhibition concentration of hemagglutination ([1]; inhibitor: Asialofetuin) [μl/ml]	minimum inhibition concentration of hemagglutination ([1]; inhibitor: Asialomucin (pig)) [μl/ml]	minimum inhibition concentration of hemagglutination [1, 10] [μl/ml]	minimum inhibition concentration of hemagglutination ([1]; inhibitor: Casein) [μl/ml]	minimum inhibition concentration of hemagglutination ([1]; inhibitor: Fetuin) [μl/ml]	minimum inhibition concentration of hemagglutination [1, 11] [μl/ml]	minimum inhibition concentration of hemagglutination [1, 12] [μl/ml]	minimum inhibition concentration of hemagglutination ([1]; inhibitor: Lactoferrin) [μl/ml]	minimum inhibition concentration of hemagglutination ([1]; inhibitor: Mucin (bovine)) [μl/ml]	minimum inhibition concentration of hemagglutination ([1]; inhibitor: Mucin (pig)) [μl/ml]	minimum inhibition concentration of hemagglutination ([1]; inhibitor: Ribonuclease) [μl/ml]	minimum inhibition concentration of hemagglutination ([1]; inhibitor: Thyroglobulin) [μl/ml]	minimum inhibition concentration of hemagglutination ([1]; inhibitor: Transferrin) [μl/ml]	minimum inhibition concentration of hemagglutination [1, 13] [μl/ml]	interaction strength (relative value) by ELISA [2]	interaction strength (relative value) by ELISA [3]	interaction strength (relative value) by ELISA [4]	interaction strength (relative value) by ELISA [5]	interaction strength (relative value) by ELISA [6]	interaction strength (relative value) by ELISA [7]	other results
Aspergillus oryzae lectin [AOL, reference compound]	>250	62.5	>250	>250	>250	>250	>250	>250	>250	62.5	>250	>250	>250	>250	X (Relative values of 10 or less)	X (Relative values of 10 or less)	◯ (Relative values of 80 to 50)	⊚ (Relative values of 120 to 80)	⊚ (Relative values of 120 to 80)	⊚ (Relative values of 120 to 80)	interaction strength (relative value) by ELISA [8]: X (Relative values of 10 or less); interaction strength (relative value) by ELISA [9]: Δ (Relative values of 50 to 10)
Pholiota terrestris lectin [PTL, novel L-fucose α1→6 specific lectin purified from the mushroom Pholiota terrestris]	>250	>250	>250	>250	>250	>250	>250	>250	>250	>250	>250	250	>250	>250	X (Relative values of 10 or less)	X (Relative values of 10 or less)	⊚ (Relative values of 120 to 80)	X (Relative values of 10 or less)	X (Relative values of 10 or less)	⊚ (Relative values of 120 to 80)	interaction strength (relative value) by ELISA [8]: X (Relative values of 10 or less); interaction strength (relative value) by ELISA [9]: X (Relative values of 10 or less)
Stropharia rugosoannulata lectin [SRL, novel L-fucose α1→6 specific lectin purified from the mushroom Stropharia rugosoannulata]	>250	>250	>250	>250	>250	>250	>250	>250	>250	>250	>250	250	>250	>250	X (Relative values of 10 or less)	X (Relative values of 10 or less)	◯ (Relative values of 80 to 50)	X (Relative values of 10 or less)	X (Relative values of 10 or less)	⊚ (Relative values of 120 to 80)	interaction strength (relative value) by ELISA [8]: X (Relative values of 10 or less); interaction strength (relative value) by ELISA [9]: X (Relative values of 10 or less)
B1	>250	>250	>250	>250	>250	>250	>250	>250	>250	>250	>250	62.5	>250	>250							
